Tested on: B16-F10 cells
Experiment: Melanin content assay (extracellular and intracellular)
Type: cell-based, murine
Settings: K8 1–10 µM, 100 nM α-MSH
Method: The intracellular melanin retained in cells and extracellular melanin secreted from cells were separately determined. B16-F10 cells were plated in 6-well plates (1.2 × 10^4 cells per well), cultured for 24 h, treated with a test drug at various concentrations for 60 min, and stimulated with 100 nM α-MSH for 72 h. The conditioned medium was evaluated to determine the extracellular melanin content. Adherent cells were extracted with 10% dimethyl sulfoxide solution containing 1.0 M sodium hydroxide at 60 °C for 60 min, and melanin content in the extract was estimated by measuring the absorbance at 400 nm and normalized to the total protein content of the cells.

O=C(NO)c1ccc(CC(=O)N(CCO)c2ccccc2)cc1 [K8, 4-((hydroxyamino)carbonyl)-N-(2-hydroxyethyl)-N-phenyl-benzeneacetamide]
intracellular melanin content, normalized for total cellular protein (cell extracts): suppressed by K8 in a dose-dependent manner
extracellular melanin content, normalized for total cellular protein (conditioned medium): suppressed by K8 in a dose-dependent manner

From article PMC7370187, “Screening of an Epigenetic Drug Library Identifies 4-((hydroxyamino)carbonyl)-N-(2-hydroxyethyl)-N-Phenyl-Benzeneacetamide that Reduces Melanin Synthesis by Inhibiting Tyrosinase Activity Independently of Epigenetic Mechanisms” (International Journal of Molecular Sciences, 2020)
